Earlier results in patent US6682761B2, “Water-insoluble drug particle process” (RTP Pharma, Inc., priority 2000, dated 2004).

Conditions: in vivo

SMILES: CC(C)(Oc1ccc(C(=O)c2ccc(Cl)cc2)cc1)C(=O)O [Fenofibric acid]
- plasma half-life: about 20 hours
